Reference: EP3290412A1, “HIV-1 NUCLEOCAPSID INHIBITORS” (Università degli Studi di Siena, priority 2016, dated 2018)
Marks after values point to notes of the source that are not given here.

Experiments:
[1] = test system: NIH Catalogue Number: 7401; details: cited from earlier work; for Level of resistance: NRTI resistant strain 7401; for Fold change: strain 7401, resistant virus IC50 to wild-type reference virus IC50 ratio, cut-off in brackets
[2] = test system: NIH Catalogue Number: 7400; details: cited from earlier work; for Level of resistance: NRTI resistant strain 7400; for Fold change: strain 7400, resistant virus IC50 to wild-type reference virus IC50 ratio, cut-off in brackets
[3] = test system: NIH Catalogue Number: 11808; details: cited from earlier work; for Level of resistance: PI resistant strain 11808; for Fold change: strain 11808, resistant virus IC50 to wild-type reference virus IC50 ratio, cut-off in brackets
[4] = test system: NIH Catalogue Number: 12465; details: cited from earlier work; for Level of resistance: PI resistant strain 12465; for Fold change: strain 12465, resistant virus IC50 to wild-type reference virus IC50 ratio, cut-off in brackets
[5] = biological target: NC(11-55) (Human immunodeficiency virus type 1, UniProt P12493); experiment: NC inhibition assay (NC-induced cTAR DNA destabilization, fluorescence); type: biochemical, HIV-1; details: for IC50: cTAR DNA 0.1 µM, 1 µM NC(11-55), 20 °C, pH 7.5, read-out: NC inhibition IC50; for inhibition at 100 µM: single point screening, positive = >25% inhibition at 100µM
From the text: The NC inhibition assay is based on the nucleic acid chaperone activity of the NC protein. NC destabilizes the secondary structure of cTAR DNA, the complementary sequence of the transactivation response element, which is involved in minus-strand DNA transfer during reverse transcription. In the assay, the cTAR sequence from the HIV-1 Mal strain (Bernacchi et al, J Mol Biol, 2002) is labeled with a dye (Alexa488 fluorophore) and a quencher 4-(4'-dimethylaminophenylazo)benzoic acid (Dabcyl) at its 5' and 3' ends, respectively. In the absence of destabilization, the close proximity of both cTAR ends results in a strong fluorescence quenching of the dye emission by the Dabcyl group. NC(11-55) added to cTAR at a ratio of 10 NC/cTAR melts the bottom of the cTAR stem, which increases the distance between the dye and the quencher and as a result increases the dye fluorescence signal [Shvadchak et al, (2009) Identification by high throughput screening of small compounds inhibiting the nucleic acid destabilization activity of the HIV-1 nucleocapsid protein. Biochimie, 916-923]. NCIs are expected to prevent the NC-induced destabilization of cTAR and thus reverse the NC-induced increase in the fluorescence of the labeled cTAR. The activity of the inhibitor is thus evaluated from the ratio of the fluorescence intensity observed in the presence of NC with the molecule to the one in the absence of the compound.
The doubly labelled cTAR DNA oligonucleotides (55nt) were synthesised and purified by IBA GmbH Nucleic Acids Product Supply (Göttingen, Germany). Extinction coefficient at 260 nm of 5.73 x 10^5 M^-1 cm^-1 was used to determine the concentration of cTAR.
The NC(11-55) peptide (Avilov et al, Antimicrob Agents Chemother, 2012) was synthesized by solid-phase peptide synthesis on a 433A synthesizer (ABI, Foster City, CA) as previously described [De Rocquigny H, (1991) First large scale chemical synthesis of the 72 amino acid HIV-1 nucleocapsid protein NCp7 in an active form. Biochem Biophys Res Commun., 1010-1018]. The peptide was stored lyophilized and was resuspended in water before use. The concentration of peptide was determined by using an extinction coefficient of 5.7 x 10^3 M^-1 cm^-1 at 280 nm. Next, 2.5 molar equivalents of ZnSO4 were added and pH was raised to its final value by adding buffer.
All experiments were performed at 20 °C in 25 mM Tris-HCl (pH 7.5), 30 mM NaCl, and 0.2 mM MgCl2. To evaluate the inhibition activity of compounds on NC-induced cTAR destabilization, cTAR DNA (0.1 µM) was preincubated with 1 µM NC(11-55) (molar ratio NC:cTAR = 10:1) for 15 min at room temperature before addition of compound. For single point screening, all compounds were tested at three final concentrations: 1 µM, 10 µM and 100 µM. For the IC50 determination, inhibition of NC-induced cTAR melting was monitored through addition of increasing concentrations of the selected molecules to the pre-formed NC(11-55)-cTAR complex. After the addition of compound, the mixture was incubated for 15 min at room temperature before the reading. The fluorescence signal was recorded with a plate reader Xenius (SAFAS Monaco) or Fluoromax 3 spectrofluorometer (Horiba Jobin-Yvon), and the excitation and emission wavelengths were 480 and 520 nm, respectively. The spectra were corrected for dilution, buffer fluorescence and screening effect (when it was required). In order to check the occurrence of aggregation, we performed additional reading of absorption with the plate reader Xenius (SAFAS Monaco) or Cary 4000 spectrophotometer (Agilent). […]

[6] = biological target: T1, full length (1-55) HIV-1 NCp7 (Human immunodeficiency virus type 1 group M subtype B, UniProt P12493); experiment: Electromobility Shift Assay (EMSA), competition for ssDNA binding; details: NCp7 300 nM, M13mp18 ssDNA; positive = >25% inhibition at 100µM
T1 construct: recombinant full length (1-55) HIV-1 NCp7 proteins; made in house
From the text: The assay used a recombinant full length (1-55) HIV-1 NCp7 proteins based on the NL4-3 sequence (GenBank accession number AF324493). The protein was expressed and purified as described in [Carteau, S., Gorelick, R. J. & Bushman, F. D. Coupled integration of human immunodeficiency virus type 1 cDNA ends by purified integrase in vitro: stimulation by the viral nucleocapsid protein. Journal of virology 73, 6670-6679 (1999)].
Competition for single-stranded (ss) DNA binding was realized by mixing 1 µL of serial dilutions of NC inhibitors (diluted in DMSO) with 44 µL of NCp7 (300 nM) in a reaction buffer (20 mM Tris-HCl pH 7.4, 2 mM MgCl2, 100 mM NaCl, 1 mM DTT). 5 µL of a 10 ng/µL (4 nM) solution of M13mp18 ssDNA (BayouBiolabs) were then added and the tubes were incubated for 25 minutes at 37 °C. The reaction was terminated by chilling the tubes on ice followed by the addition of 5 µL of a loading buffer (30% glycerol, 0.01% xylene cyanol, 10 mM Tris-HCl pH 7.4). Samples were then resolved on 25 cm-long, 1% (w/v) agarose gels (SeaKem LE Agarose, Lonza) in 0.5x TBE. Gels were run in a Sub-Cell GT cuvette (BioRad) for 18 h at room temperature at 3 V/cm, stained with SybrGold (Molecular Probes) and scanned for fluorescence using a Typhoon 8600 (GE Healthcare). The experiments were performed in triplicate. Competition efficiency was realized by measuring the relative distance in pixels between the unbound ssDNA control, the NCp7-bound ssDNA control and the bound ssDNA for each points of the titration with the ImageQuant software. The IC50 was estimated as the NC inhibitors concentrations for which the bound ssDNA migrated at 50% of the distance separating the bound from the unbound ssDNA.

[7] = test system: HIV-1 reference strain NL4-3; experiment: MonoCycle assay (TZM-bl cells); type: cell-based; details: Human immunodeficiency virus 1, NL43, TZM-bl, 48 h, read-out: Mono Cycle IC50 nM
Protocol: MonoCycle assay is a cell based assay allowing the evaluation of antiviral activity of HIV-1 inhibitors targeting the early steps of HIV-1 life cycle such as entry, uncoating of viral particles, reverse transcription and integration. The assay consists in the infection of TZM-bl cells (20,000/well) with the HIV-1 reference strain NL4-3 in presence of serial five-fold dilutions of the investigational inhibitors. After 48 hours, cells were lysed adding 40 µl of Glo Lysis Buffer (Promega) to each well for 5 minutes, then 40 µl of Brighy-Glo Luciferase Reagent (Promega) were added to each well for relative luminescence units (RLU) counting using Glo-Max Multi Detection System (Promega). RLU values from each well were elaborated using the GraphPad v5.0 software to calculate the IC50 of each compound.

[8] = test system: HIV-1 reference strain NL4-3; experiment: BiCycle assay (MT-2 then TZM-bl cells); type: cell-based; details: Human immunodeficiency virus 1, NL43, TZM-bl, read-out: BiCycle IC50 nM
Protocol: BiCycle Assay is cell based assay allowing the evaluation of the antiviral activity of HIV-1 inhibitors on the whole replication cycle of HIV-1. The assay consists in a first round of infection of the T-cell line MT-2 followed by infection of TZM-bl cells. MT-2 cells were seeded at a concentration of 50,000 cells/well in a 96-well plate and infected with the HIV-1 reference strain NL4-3 in presence of five-fold dilutions of the investigational compounds. After 72 hours, 50 µl of supernatant from each well, containing the virus produced in the first round of infection, were used to infect TZM-bl cells seeded in a 96-plate well at a concentration of 30,000 cells/well. Two days later, cells were lysed adding 40 µl of Glo Lysis Buffer (Promega) to each well for 5 minutes, then 40 µl of Brighy-Glo Luciferase Reagent (Promega) were added to each well for relative luminescence units (RLU) counting using Glo-Max Multi Detection System (Promega). RLU values from each well were elaborated using the GraphPad v5.0 software to calculate the IC50 of each compound.

[9] = test system: NIH Catalogue Number: 12231; details: cited from earlier work; for Level of resistance: NNRTI resistant strain 12231; for Fold change: strain 12231, resistant virus IC50 to wild-type reference virus IC50 ratio, cut-off in brackets
[10] = test system: NIH Catalogue Number: 12229; details: cited from earlier work; for Level of resistance: NNRTI resistant strain 12229; for Fold change: strain 12229, resistant virus IC50 to wild-type reference virus IC50 ratio, cut-off in brackets

SMILES: Nc1nc(NC2CC2)c2ncn([C@H]3C=C[C@@H](CO)C3)c2n1 [Abacavir]
- Level of resistance [1]: High resistance
- Fold change [1]: 7.4 (4.5^c)
- Level of resistance [2]: High resistance
- Fold change [2]: 7.7 (4.5^c)

SMILES: COC(=O)N[C@H](C(=O)N[C@@H](Cc1ccccc1)[C@@H](O)CN(Cc1ccc(-c2ccccn2)cc1)NC(=O)[C@@H](NC(=O)OC)C(C)(C)C)C(C)(C)C [Atazanavir]
- Level of resistance [3]: High resistance
- Fold change [3]: 90 (2.2^c)
- Level of resistance [4]: High resistance
- Fold change [4]: 110 (2.2^c)

SMILES: O=C(c1nc(-c2ccccn2)nc(O)c1O)N1CCC(c2ccccc2)CC1 [Compound 9, (5,6-dihydroxy-2-(pyridin-2-yl)pyrimidin-4-yl)(4-phenylpiperidin-1-yl)methanone]
- IC50 [5]: 128 µM
- inhibition at 100 µM [5]: > 25%
- EMSA screening results [6]: Negative
- IC50 [7]: 32900 nM
- IC50 [8]: 2000 nM

SMILES: C[C@@H](NC(=O)c1nc(-c2nccc3[nH]ccc23)nc(O)c1O)C1CCCCC1 [Compound 85, (R)-N-(1-cyclohexylethyl)-5,6-dihydroxy-2-(1H pyrrolo[3,2-c]pyridin-4-yl)pyrimidine-4-carboxamide]
- IC50 [5]: 11.5 µM
- inhibition at 100 µM [5]: > 25%
- EMSA screening results [6]: Positive (A compound showing >25% inhibition when tested at 100µM concentration is considered as "positive")
- IC50 [7]: > 50000 nM
- IC50 [8]: 2670 nM

SMILES: CC(C)CN(C[C@@H](O)[C@H](Cc1ccccc1)NC(=O)O[C@H]1CO[C@H]2OCC[C@H]21)S(=O)(=O)c1ccc(N)cc1 [Darunavir]
- Level of resistance [3]: High resistance
- Fold change [3]: 127 (10^c)
- Level of resistance [4]: Susceptible
- Fold change [4]: 5.2 (10^c)

SMILES: O=C1Nc2ccc(Cl)cc2[C@@](C#CC2CC2)(C(F)(F)F)O1 [Efavirenz]
- Level of resistance [9]: High resistance
- Fold change [9]: 90 (3^b)
- Level of resistance [10]: High resistance
- Fold change [10]: >200 (3^b)

SMILES: Nc1nc(=O)n([C@@H]2CS[C@H](CO)O2)cc1F [Emtricitabine]
- Level of resistance [1]: High resistance
- Fold change [1]: >200 (3.5^c)
- Level of resistance [2]: High resistance
- Fold change [2]: >200 (3.5^c)

SMILES: Cc1cc(C#N)cc(C)c1Oc1nc(Nc2ccc(C#N)cc2)nc(N)c1Br [Etravirine]
- Level of resistance [9]: High resistance
- Fold change [9]: 8.8 (2.9^c)
- Level of resistance [10]: High resistance
- Fold change [10]: 6.8 (2.9^c)

SMILES: Cc1cccc(C)c1OCC(=O)N[C@@H](Cc1ccccc1)[C@@H](O)C[C@H](Cc1ccccc1)NC(=O)[C@H](C(C)C)N1CCCNC1=O [Lopinavir]
- Level of resistance [3]: High resistance
- Fold change [3]: 70 (10^c)
- Level of resistance [4]: Intermediate resistance
- Fold change [4]: 36 (10^c)

SMILES: Cc1ccnc2c1NC(=O)c1cccnc1N2C1CC1 [Nevirapine]
- Level of resistance [9]: High resistance
- Fold change [9]: >200 (4.5^b)
- Level of resistance [10]: High resistance
- Fold change [10]: >200 (4.5^b)

SMILES: C[C@H](Cn1cnc2c(N)ncnc21)OCP(=O)(O)O [Tenofovir]
- Level of resistance [1]: High resistance
- Fold change [1]: 1.5 (1.4^c)
- Level of resistance [2]: High resistance
- Fold change [2]: 2.3 (1.4^c)

SMILES: Cc1cn([C@H]2C[C@H](N=[N+]=[N-])[C@@H](CO)O2)c(=O)[nH]c1=O [Zidovudine]
- Level of resistance [1]: High resistance
- Fold change [1]: 24 (1.9^b)
- Level of resistance [2]: High resistance
- Fold change [2]: 61 (1.9^b)
